Assay results: article PMC10525585, “Evaluation of the Antibacterial Effect of Aurone-Derived Triazoles on Staphylococcus aureus” (Antibiotics, 2023)

Key:
[1] = tested on: HepG2 (ATCC HB-8065) cells; experiment: Cytotoxicity assay (PrestoBlue); format: cell-based, Human; details: Table 1 and text; 24 h incubation; read-out: CC50 (µM) HepG2
Method: Human HeLa epithelial (ATCC CCL-2) and HepG2 liver epithelial (ATCC HB-8065) cell lines were used to determine toxicity of AT compounds for mammalian cells. The cells were grown in a complete culture medium of RPMI 1640 with 10% heat-inactivated fetal bovine serum (FBS) at 37 °C in 5% CO2 (95% room air) in a humidified incubator. Before use, attached cell monolayers, which had reached at least 90% confluency, were detached by trypsinization with trypsin-EDTA (0.25%) and resuspension in fresh complete culture media. For experiments, the stock concentration of 1 × 10^5 cells/mL (to achieve a final 1 × 10^4 cells/well concentration) was achieved by counting the trypsinized cells and adjusting to their final concentration for assays.
HeLa or HepG2 cells were pre-seeded into a 96-well transparent, flat bottom plate by adding a volume of 100 µL stock cell concentration (1 × 10^5 cells/mL) in complete culture media to each well. The plate was incubated overnight at 37 °C in a 5% CO2 (95% room air) humidified incubator. After the incubation and before mixing in the AT compounds, a 100 µL volume of fresh complete culture media was added to the pre-seeded wells. The 2-fold dilutions of AT compounds in triplicates were prepared on a separate 96-well plate. Once the dilution plate was prepared, dilutions were transferred into the pre-seeded plate to achieve the same concentrations of ATs as for the inhibition assay described above. The final inoculated plate was then returned to the 5% CO2 (95% room air) humidified incubator for an additional 24 h of incubation with the diluted ATs. Controls were blank wells containing only media, wells with cells and DMSO in complete culture media, and wells with cells and complete culture media only. Measurement of toxicity was analogous to the inhibition assay except that 20 µL of PrestoBlue^TM was used and the incubation was 3–6 h before reading with the plate-reader. Cytotoxicity concentration (CC50) was defined as the concentration where half of the cells remained viable and was computed using GraphPad Prism.

MRSA [2] = experiment: Growth curve assay (Bioscreen C, 48 h); format: cell-based, Staphylococcus aureus; details: 48 h growth curve; for strength of growth inhibition: concentrations closer to the IC50 values (5–25 µM)
Method: (§1) This suspension was diluted 1:20 in TSB.
(§2) For the growth curve assay, honeycomb plates (Growth Curves USA, Piscataway, NJ, USA) were used with TSB as the growth medium. Using bacterial cultures as described above, growth curve measurements were carried out in quintuplicates. For positive growth controls, wells with 10 µL of bacteria mixed into 90 µL of TSB were used. For quintuplicate treatment wells, 4-fold dilutions of AT compounds were used such that AT concentrations of 100, 25, 6.25, and 1.56 µM were tested. A 10 µL inoculum of bacteria prepared as described above was added to each dilution of the ATs. The growth in each well was measured in 15 min intervals for 48 h at 37 °C in the Bioscreen C instrument. The results were processed and analyzed with Microsoft Excel (version 2201) and GraphPad Prism 9.3.1 software (GraphPad by Dotmatics, Boston, MA, USA).

MSSA [3] = experiment: Growth curve assay (Bioscreen C, 48 h); format: cell-based, Staphylococcus aureus; details: 48 h growth curve; for strength of growth inhibition: concentrations closer to the IC50 values (5–25 µM)
Method: as §1, §2

pre-formed MSSA biofilms = experiment: Biofilm assay (BacLight live/dead confocal imaging); format: cell-based, Staphylococcus aureus; details: for Fold Change in Dead Cells / Fold Change in Total Cells / Percent Change in Dead Cells / Percent Change in Total Cells: versus mock-treated control; for Dead Cell Count / Living Cell Count / Total Cell Count: 48 h biofilm treated 24 h with 100 µM AT; for Dead Cell Count: control 96; for Living Cell Count: control 2124; for Total Cell Count: control 2220
Method: To prepare AT-treated cultures, overnight bacterial cultures were used (adjusted to 1 × 10^8 CFU/mL) in BHI medium to grow biofilm in 35 mm MatTEK dishes with a 20 mm glass bottom well by adding 1500 µL of overnight bacteria per dish. The dishes were incubated at 37 °C in a humidified incubator for 48 h. The old media was refreshed by adding 1500 µL of BHI for the control, or the AT mixture (15 µL of AT stock with 1485 µL BHI to achieve 100 µM AT concentration), or DMSO mixture (15 µL DMSO with 1485 µL BHI) for negative control. The dishes were then incubated in a humidified incubator for an additional 24 h at 37 °C. The media was removed, and cells were washed twice with 500 µL PBS, followed by the addition of 50 µL BacLight^TM with 250 µL PBS for 15 min. Biofilms were imaged using a Zeiss AxioObserver microscope with an LSM700 confocal module (Carl Zeiss Microscopy, White Plains, NY, USA). To assess biofilm disruption, Fiji software version 2.14.0 was used. Initially, raw microscope images were imported, separating the color channels, as dead cells were stained fluorescent red and living cells were stained green. To allow particle counts, the color saturation threshold was set using the RenyiEntropy option to clear the images from potential noise. This step was followed by watershed separation, which separates potentially overlapping cells, and then particle analysis was completed using the 0.5–1.5 micron size as a guide. Biofilm disruption was quantified both by reductions in total bacterial cell numbers and increases in dead cell numbers.

MRSA [4] = experiment: Checkerboard assay with antibiotics; format: cell-based, Staphylococcus aureus; details: smallest ratio; <0.5 synergy, 0.5–4 no interaction, >4 antagonism
Method: (§3) This preparation for the checkerboard assay was analogous to the antibacterial assay described above in that the standard (5 × 10^5 CFU/mL) concentration of bacteria in media was mixed with 2-fold dilutions of antibacterial agents to verify their inhibition potential. […] Control wells contained 10 µL of bacteria with 90 µL of CAMHB, and the negative control was bacteria in 1% DMSO and CAMHB. Incubation, staining with PrestoBlue^TM, and assessing cell viability are as described for the antibacterial assay above.

MSSA [5] = experiment: Checkerboard assay with antibiotics; format: cell-based, Staphylococcus aureus; details: smallest ratio; <0.5 synergy, 0.5–4 no interaction, >4 antagonism
Method: as §3

Compound	CC50 [1] [µM]	strength of growth inhibition (MRSA [2])	strength of growth inhibition (MSSA [3])	Fold Change in Dead Cells (pre-formed MSSA biofilms; 100 µM AT, 24 h)	Fold Change in Total Cells (pre-formed MSSA biofilms; 100 µM AT, 24 h)	Percent Change in Dead Cells (pre-formed MSSA biofilms; 100 µM AT, 24 h) [%]	Percent Change in Total Cells (pre-formed MSSA biofilms; 100 µM AT, 24 h) [%]	Dead Cell Count (pre-formed MSSA biofilms)	Living Cell Count (pre-formed MSSA biofilms)	Total Cell Count (pre-formed MSSA biofilms)	FICi with Daptomycin, MRSA (MRSA [4])	FICi with Vancomycin, MRSA (MRSA [4])	FICi with Daptomycin, MSSA (MSSA [5])	FICi with Vancomycin, MSSA (MSSA [5])	disruption of MSSA biofilms (pre-formed MSSA biofilms; pre-formed biofilm, 100 µM AT, 24 h)	relative inhibition of MRSA growth (MRSA [2]; 0–100 µM, among the four ATs)	blocking of bacterial growth (MRSA [2]; concentrations below 10 µM)	blocking of bacterial growth (MSSA [3]; concentrations below 10 µM)
O=C(c1ccccc1O)c1n[nH]nc1-c1ccc(Cl)cc1 [AT106]	70.7	weaker inhibitors	weaker inhibitors	-0.75	-0.8914	-75.00	-89.14	24	217	241	0.05	0.52	0.25	0.57	–	–	–	–
O=C(c1ccccc1O)c1n[nH]nc1-c1cccc(C(F)(F)F)c1 [AT116]	–	weaker inhibitors	weaker inhibitors	2.417	-0.4212	241.67	-42.12	328	957	1285	0.05	1.03	0.28	–	successfully disrupted MSSA biofilms	–	–	–
O=C(c1ccccc1O)c1n[nH]nc1-c1ccc(Br)s1 [AT137]	–	strong inhibitors	strong inhibitors	-0.8021	-0.9347	-80.21	-93.47	19	126	145	0.19	1.13	0.38	1.5	–	greatest inhibition	successful in blocking bacterial growth	successful in blocking bacterial growth
